Residue numbers refer to the chain shown, from its start. Where “and” joins values, the source holds several entries; their conditions need not be identical. Equal entries are not always repeated.
Legend:
mouse GAC (K325A) = test system: mouse GAC (K325A); design: method as in PMID 23935106; conditions: concentrations as high as 10 μM; equivalent to human GAC (K320A); cited from earlier work
recombinant GAC = test system: recombinant GAC; design: method as in PMID 26988803; conditions: cited from earlier work; for IC50: recombinant GAC (50 nM), total glutamine hydrolysis
GAC (F322W) = target: T1, GAC (F322W) (Mus musculus, UniProt D3Z7P3, F327W); experiment: Tryptophan fluorescence quenching binding assay, GAC (F322W)
T1 sequence (D3Z7P3 72-603 isoform D3Z7P3-2 F327W limits assumed): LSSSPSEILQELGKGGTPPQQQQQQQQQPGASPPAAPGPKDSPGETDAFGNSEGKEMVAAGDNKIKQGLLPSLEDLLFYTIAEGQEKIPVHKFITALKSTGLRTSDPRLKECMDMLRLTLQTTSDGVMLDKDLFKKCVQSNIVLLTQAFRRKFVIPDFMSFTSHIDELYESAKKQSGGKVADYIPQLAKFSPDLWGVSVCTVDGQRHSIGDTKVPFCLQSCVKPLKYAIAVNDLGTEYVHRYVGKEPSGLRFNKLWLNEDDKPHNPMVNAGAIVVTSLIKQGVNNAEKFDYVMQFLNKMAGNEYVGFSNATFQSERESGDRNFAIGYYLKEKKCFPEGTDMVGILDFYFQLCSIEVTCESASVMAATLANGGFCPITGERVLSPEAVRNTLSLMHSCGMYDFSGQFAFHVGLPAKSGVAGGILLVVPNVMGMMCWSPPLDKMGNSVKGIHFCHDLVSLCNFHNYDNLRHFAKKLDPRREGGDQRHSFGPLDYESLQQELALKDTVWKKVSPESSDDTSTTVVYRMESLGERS
Protocol: (§1) We first examined their ability to alter the conformation of the activation loop, that is, the site where the compounds bind to GAC ([15], [28]). […] We then treated the GAC (Y466W) mutant with each molecule to monitor conformational changes within the substrate-binding site ([15], [28]).
(§2) Mouse GAC (F327W) and GAC (Y471W), which correspond to human GAC (F322W) and GAC (Y466W), were prepared as previously described ([14], [28]), except that the protein was eluted in a higher salt buffer during FPLC purification (500 mM NaCl, 20 mM Tris–HCl, pH 8.5) to enhance protein stability. Assays were then conducted as previously described ([14], [28]). Briefly, 100 nM GAC (F327W) or GAC (Y471W) was solvated in 1 ml of 50 mM Tris-acetate, pH 8.5, with 0.1 mM EDTA and the indicated amount of inhibitor.

GAC (Y466W) = target: T2, GAC (Y466W) (Mus musculus, UniProt D3Z7P3, Y471W); experiment: Tryptophan fluorescence quenching binding assay, GAC (Y466W); conditions: for Kd: Kd (apparent), Trp 466 fluorescence quenching
T2 sequence (D3Z7P3 72-603 isoform D3Z7P3-2 Y471W limits assumed): T1 sequence (D3Z7P3 72-603 isoform D3Z7P3-2 F327W limits assumed) with W256F, Y400W
Protocol: as §1, §2

[1] = design: method as in PMID 26988803; conditions: compared with BPTES; cited from earlier work
GAC (K320A and Y466W) = target: T3, GAC (K320A and Y466W) (Mus musculus, UniProt D3Z7P3, K325A/Y471W); experiment: Tryptophan fluorescence quenching binding assay, GAC (K320A and Y466W); conditions: GAC mutant K320A, Trp 466 fluorescence, read-out: Kd (apparent)
T3 construct: made in house
T3 sequence (D3Z7P3 72-603 isoform D3Z7P3-2 K325A/Y471W): T1 sequence (D3Z7P3 72-603 isoform D3Z7P3-2 F327W limits assumed) with K254A, W256F, Y400W

GAC (F318A and Y466W) = target: T4, GAC (F318A and Y466W) (Mus musculus, UniProt D3Z7P3, F323A/Y471W); experiment: Tryptophan fluorescence quenching binding assay, GAC (F318A and Y466W); conditions: GAC mutant F318A, Trp 466 fluorescence, read-out: Kd (apparent)
T4 sequence (D3Z7P3 128-555 F323A/Y471W): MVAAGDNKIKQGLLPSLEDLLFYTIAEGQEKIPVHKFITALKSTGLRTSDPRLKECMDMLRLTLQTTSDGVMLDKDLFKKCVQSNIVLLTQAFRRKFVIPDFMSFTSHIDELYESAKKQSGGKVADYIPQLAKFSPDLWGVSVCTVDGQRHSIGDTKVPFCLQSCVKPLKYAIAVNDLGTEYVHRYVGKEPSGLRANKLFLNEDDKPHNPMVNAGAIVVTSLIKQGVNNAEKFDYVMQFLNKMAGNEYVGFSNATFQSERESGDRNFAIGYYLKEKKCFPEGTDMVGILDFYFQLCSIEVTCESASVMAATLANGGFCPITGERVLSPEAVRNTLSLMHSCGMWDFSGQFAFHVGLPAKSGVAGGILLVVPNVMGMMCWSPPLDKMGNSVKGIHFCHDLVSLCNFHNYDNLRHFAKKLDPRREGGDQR

GAC (R317A and Y466W) = target: T5, GAC (R317A and Y466W) (Mus musculus, UniProt D3Z7P3, R322A/Y471W); experiment: Tryptophan fluorescence quenching binding assay, GAC (R317A and Y466W); conditions: GAC mutant R317A, Trp 466 fluorescence, read-out: Kd (apparent)
T5 sequence (D3Z7P3 128-555 R322A/Y471W): T4 sequence (D3Z7P3 128-555 F323A/Y471W) with R195A, A196F

## O=C(Cc1ccccc1)Nc1nnc(CCSCCc2nnc(NC(=O)Cc3ccccc3)s2)s1 [BPTES, bis-2-(5-phenylacetamido-1,3,4-thiadiazol-2-yl)ethyl sulfide, reference compound]
Mouse GAC (K325A)
  inhibition of mouse GAC (K325A): resistant to inhibition

## Nc1nnc(N2CCC(Oc3nnc(NC(=O)Cc4ccccc4)s3)CC2)s1 [UPGL00031]
Recombinant GAC
  IC50: 0.203 µM
GAC (F322W)
  Kd: 0.0344 µM
GAC (F322W); GAC (F322W)
  quenching of Trp 322 fluorescence (in words): quenching of Trp 322 fluorescence
GAC (Y466W); GAC (Y466W)
  quenching of Trp 466 fluorescence / binding (in words): effective at causing a quenching of Trp 466 fluorescence
GAC (Y466W); 100 nM GAC (Y466W)
  Kd: 0.0272 µM

## O=C(Cc1ccccc1)Nc1nnc(O[C@H]2CCN(c3nnc(NC(=O)Cc4ccccc4)s3)C2)s1 [UPGL00015]
Recombinant GAC
  IC50: 0.04 µM

## O=C(Cc1cccc(OC(F)(F)F)c1)Nc1ccc(CCCCc2nnc(NC(=O)Cc3ccccn3)s2)nn1 [CB-839, reference compound]
[1]
  calculated logP relative to BPTES: higher calculated logP

## Nc1nnc(OC2CCN(c3nnc(N)s3)CC2)s1 [UPGL00018]
Recombinant GAC; at 10 μM, catalytic data of this paper come from ref 20
  inhibition: ~20%
Recombinant GAC
  IC50: > 10 µM
GAC (F322W)
  Kd: > 1 µM
GAC (F322W); GAC (F322W)
  lowest concentration with statistically significant quenching: 240 nM
  quenching of Trp 322 fluorescence (in words): largely ineffective at micromolar concentrations
GAC (Y466W); 100 nM GAC (Y466W), 1 μM UPGL00018 and 1 μM UPGL00019, simultaneous or sequential
  competition with UPGL00019 for GAC binding: unable to compete away UPGL00019
GAC (Y466W); GAC (Y466W)
  quenching of Trp 466 fluorescence / binding (in words): markedly less effective
GAC (Y466W); GAC (Y466W), highest tested concentration, effect minimal
  lowest concentration with statistically significant effect on tryptophan fluorescence: 980 nM
GAC (Y466W); 100 nM GAC (Y466W)
  Kd: > 1 µM

## O=C(Cc1ccccc1)Nc1nnc(OC2CCN(c3nnc(NC(=O)Cc4ccccc4)s3)CC2)s1 [UPGL00019]
GAC (K320A and Y466W)
  Kd: > 1 µM
Recombinant GAC
  IC50: 0.03 µM
GAC (F322W)
  Kd: 0.0545 µM
GAC (F322W); GAC (F322W)
  quenching of Trp 322 fluorescence (in words): quenching of Trp 322 fluorescence
GAC (Y466W); GAC (Y466W)
  quenching of Trp 466 fluorescence / binding (in words): effective at causing a quenching of Trp 466 fluorescence
GAC (Y466W); 100 nM GAC (Y466W)
  Kd: 0.0287 µM and 0.029 µM
GAC (F318A and Y466W)
  Kd: 0.054 µM
GAC (R317A and Y466W)
  Kd: 0.031 µM

## O=C(Cc1ccccc1)Nc1ccc(OC2CCN(c3ccc(NC(=O)Cc4ccccc4)nn3)CC2)nn1 [UPGL00045]
Recombinant GAC
  IC50: 0.098 µM

## CC(=O)Nc1nnc(OC2CCN(c3nnc(NC(C)=O)s3)CC2)s1 [UPGL00020]
Recombinant GAC
  IC50: 1.05 µM
GAC (Y466W); GAC (Y466W)
  quenching of Trp 466 fluorescence / binding (in words): significantly reduced binding

## O=C(Cc1ccccc1)Nc1nnc(NC2CCN(c3nnc(NC(=O)Cc4ccccc4)s3)CC2)s1 [UPGL00004]
GAC (K320A and Y466W)
  Kd: > 1 µM
Recombinant GAC
  IC50: 0.029 µM
GAC (Y466W); 100 nM GAC (Y466W)
  Kd: 0.076 µM
GAC (F318A and Y466W)
  Kd: 0.024 µM
GAC (R317A and Y466W)
  Kd: 0.038 µM

Source: publication PMC8784640, “New insights into the molecular mechanisms of glutaminase C inhibitors in cancer cells using serial room temperature crystallography” (The Journal of Biological Chemistry, 2021)
